Laboratory results from US8906852B2 (MethylGene Inc., priority 2010, dated 2014).

Molecular target: T1, VEGFR/KDR (Homo sapiens, UniProt P35968)
T1 construct: made in house; host or cells: Sf9 cells (Spodoptera frugiperda), baculovirus
Test: VEGFR/KDR kinase inhibition, DELFIA assay
Format: biochemical
Conditions: ATP 0.6 uM (2x Km), enzyme 5 nM
Protocol: Inhibition of VEGFR/KDR is measured in a DELFIA™ assay (Perkin Elmer). The substrate poly(Glu4, Tyr) is immobilized onto black high-binding polystyrene 96-well plates. The coated plates are washed and stored at 4° C. During the assay, the enzyme is pre-incubated with inhibitor and Mg-ATP on ice in polypropylene 96-well plates for 4 minutes, and then transferred to the coated plates. The subsequent kinase reaction takes place at 30° C. for 10-30 minutes. ATP concentrations in the assay are 0.6 uM for VEGFR/KDR (2× the Km). Enzyme concentration is 5 nM. After incubation, the kinase reactions are quenched with EDTA and the plates are washed. Phosphorylated product is detected by incubation with Europium-labeled anti-phosphotyrosine MoAb. After washing the plates, bound MoAb is detected by time-resolved fluorescence in a Gemini SpectraMax reader (Molecular Devices). Compounds are evaluated over a range of concentrations, and IC50 values (concentration of compounds giving 50% inhibition of enzymatic activity) are determined.

T1 sequence (P35968 806-1356): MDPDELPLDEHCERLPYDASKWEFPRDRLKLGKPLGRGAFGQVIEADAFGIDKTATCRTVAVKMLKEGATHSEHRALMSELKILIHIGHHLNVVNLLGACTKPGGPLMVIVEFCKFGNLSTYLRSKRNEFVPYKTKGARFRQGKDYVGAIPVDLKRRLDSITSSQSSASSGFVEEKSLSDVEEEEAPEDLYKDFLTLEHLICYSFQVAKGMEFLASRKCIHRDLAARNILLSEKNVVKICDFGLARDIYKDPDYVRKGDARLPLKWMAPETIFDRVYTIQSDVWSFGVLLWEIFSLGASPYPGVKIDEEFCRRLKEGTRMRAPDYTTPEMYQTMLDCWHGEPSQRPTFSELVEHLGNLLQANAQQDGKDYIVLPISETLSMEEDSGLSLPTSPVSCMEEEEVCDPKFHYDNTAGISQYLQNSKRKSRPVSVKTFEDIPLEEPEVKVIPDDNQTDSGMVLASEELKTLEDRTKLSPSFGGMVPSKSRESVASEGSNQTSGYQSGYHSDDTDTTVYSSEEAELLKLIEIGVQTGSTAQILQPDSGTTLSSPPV

IC50 [µM]	Compound
< 0.05	Cc1cc(NCc2ccc(-c3cc4nccc(Oc5ccc(NC(=O)NC6CC6)cc5F)c4s3)nc2)n[nH]1 [Compound 333, 1-Cyclopropyl-3-(3-fluoro-4-(2-(5-((5-methyl-1H-pyrazol-3-ylamino)methyl)pyridin-2-yl)thieno[3,2-b]pyridin-7-yloxy)phenyl)urea]
< 0.05	O=C(Nc1ccc(Oc2ccnc3cc(-c4ccc(CN5CCCC(C(=O)NCCO)C5)cn4)sc23)c(F)c1)NC1CC1 (stereo not drawn) [Compound 492, 1-((6-(7-(4-(3-cyclopropylureido)-2-fluorophenoxy)thieno[3,2-b]pyridin-2-yl)pyridin-3-yl)methyl)-N-(2-hydroxyethyl)piperidine-3-carboxamide]
< 0.05	CC(O)CN1CCN(Cc2ccc(-c3cc4nccc(Oc5ccc(NC(=O)NC6CC6)cc5F)c4s3)nc2)CC1 (stereo not drawn) [Compound 562]
< 0.05	O=C(Nc1ccc(Oc2ccnc3cc(-c4ccc(CN5C(=O)CCC5=O)cn4)sc23)c(F)c1)NC1CC1 [Compound 140, 1-cyclopropyl-3-(4-(2-(5-((2,5-dioxopyrrolidin-1-yl)methyl)pyridin-2-yl)thieno[3,2-b]pyridin-7-yloxy)-3-fluorophenyl)urea]
< 0.05	COCCNCCc1ccc(-c2cc3nccc(Oc4ccc(NC(=O)Nc5cc(C)on5)cc4F)c3s2)nc1 [Compound 183, 1-(3-fluoro-4-(2-(5-(2-(2-methoxyethylamino)ethyl)pyridin-2-yl)thieno[3,2-b]pyridin-7-yloxy)phenyl)-3-(5-methylisoxazol-3-yl)urea]
< 0.05	COCCOCC(=O)N(CCOC)Cc1ccc(-c2cc3nccc(Oc4ccc(NC(=O)NC5CC5)cc4F)c3s2)cc1 [Compound 115, N-(4-(7-(4-(3-cyclopropylureido)-2-fluorophenoxy)thieno[3,2-b]pyridin-2-yl)benzyl)-2-(2-methoxyethoxy)-N-(2-methoxyethyl)acetamide]
< 0.05	COCCN(Cc1ccc(-c2cc3nccc(Oc4ccc(NC(=O)NC5CC5)cc4F)c3s2)cc1)C(=O)NC(C)C [Compound 193, 1-(4-(7-(4-cyclopropylaminocarbonylamino-2-fluorophenoxy)thieno-[3,2-b]pyridin-2-yl)benzyl)-3-isopropyl-1-(2-methoxyethyl)urea]
< 0.05	O=C(Nc1ccc(Oc2ccnc3cc(-c4ccc(CNc5ccc(OCCN6CCOCC6)cc5)cn4)sc23)c(F)c1)NC1CC1 [Compound 331, 1-Cyclopropyl-3-(3-fluoro-4-(2-(5-((4-(2-morpholinoethoxy)phenylamino)methyl)pyridin-2-yl)thieno[3,2-b]pyridin-7-yloxy)phenyl)urea]
< 0.05	CCOC(=O)CC1CCN(Cc2ccc(-c3cc4nccc(Oc5ccc(NC(=O)NC6CC6)cc5F)c4s3)nc2)CC1 [Compound 59, ethyl 2-(1-((6-(7-(4-(3-cyclopropylureido)-2-fluorophenoxy)-thieno[3,2-b]pyridin-2-yl)pyridin-3-yl)methyl)piperidin-4-yl)acelate]
< 0.05	CC1(C)CN(Cc2ccc(-c3cc4nccc(Oc5ccc(NC(=O)NC6CC6)cc5F)c4s3)nc2)CCN1CCO [Compound 500, 1-cyclopropyl-3-(3-fluoro-4-(2-(5-((4-(2-hydroxyethyl)-3,3-dimethylpiperazin-1-yl)methyl)pyridin-2-yl)thieno[3,2-b]pyridin-7-yloxy)phenyl)urea]
< 0.05	O=C(Nc1ccc(Oc2ccnc3cc(-c4ccc(CN5CC[C@H](O)C5=O)cn4)sc23)c(F)c1)NC1CC1 [Compound 110, (S)-1-cyclopropyl-3-(3-fluoro-4-(2-(5-((3-hydroxy-2-oxopyrrolidin-1-yl)methyl)pyridin-2-yl)thieno[3,2-b]pyridin-7-yloxy)phenyl)urea]
< 0.05	O=C(O)CCCCCCN1CCN(Cc2ccc(-c3cc4nccc(Oc5ccc(NC(=O)NC6CC6)cc5F)c4s3)nc2)CC1 [Compound 521, 7-(4-((6-(7-(4-(3-cyclopropylureido)-2-fluorophenoxy)thieno[3,2-b]pyridin-2-yl)pyridin-3-yl)methyl)piperazin-1-yl)heptanoic acid]
< 0.05	CN1CCN(C(=O)CCn2cc(-c3cc4nccc(Oc5ccc(NC(=O)NC6CC6)cc5F)c4s3)nn2)CC1 [Compound 378]
< 0.05	CN1CCN(C(=O)C2CN(Cc3ccc(-c4cc5nccc(Oc6ccc(NC(=O)NC7CC7)cc6F)c5s4)nc3)C2)CC1 [Compound 489, 1-cyclopropyl-3-(3-fluoro-4-(2-(5-((3-(4-methylpiperazine-1-carbonyl)azetidin-1-yl)methyl)pyridin-2-yl)thieno[3,2-b]pyridin-7-yloxy)phenyl)urea]
< 0.05	COCCNCc1ccc(-c2cc3nccc(Oc4ccc(NC(=O)NC5CC5)cc4F)c3s2)cc1 [Compound 113]
< 0.05	CCOC(=O)CCN1CCN(C(=O)c2ccc(-c3cc4nccc(Oc5ccc(NC(=O)NC6CC6)cc5F)c4s3)nc2)CC1 [Compound 236, ethyl 3-(4-(6-(7-(4-(3-cyclopropylureido)-2-fluorophenoxy)thieno-[3,2-b]pyridin-2-yl)nicotinoyl)piperazin-1-yl)propanoate]
< 0.05	CC(=O)OC1CN(C(=O)c2cc3nccc(Oc4ccc(NC(=O)NC5CC5)cc4F)c3s2)C1 [Compound 469, 1-(7-(4-(3-cyclopropylureido)-2-fluorophenoxy)thieno[3,2-b]pyridine-2-carbonyl)azetidin-3-yl acetate]
< 0.05	O=C(Nc1ccc(Oc2ccnc3cc(-c4ccc(CN5CCN(Cc6cccnc6)CC5)cn4)sc23)c(F)c1)NC1CC1 [Compound 324, 1-cyclopropyl-3-(3-fluoro-4-(2-(5-((4-(pyridin-3-ylmethyl)piperazin-1-yl)methyl)pyridin-2-yl)thieno[3,2-b]pyridin-7-yloxy)phenyl)urea]
< 0.05	O=C(Nc1ccc(Oc2ccnc3cc(C(=O)N4CCOCC4)sc23)c(F)c1)NC1CC1 [Compound 450]
< 0.05	O=C(Nc1ccc(Oc2ccnc3cc(-c4ccc(CN5CC(O)CC5=O)cn4)sc23)c(F)c1)NC1CC1 (racemic) [Compound 111, (±)-1-cyclopropyl-3-(3-fluoro-4-(2-(5-((4-hydroxy-2-oxopyrrolidin-1-yl)methyl)pyridin-2-yl)thieno[3,2-b]pyridin-7-yloxy)phenyl)urea]
< 0.05	NC(CCCCNCc1ccc(-c2cc3nccc(Oc4ccc(NC(=O)NC5CC5)c(F)c4F)c3s2)nc1)C(=O)O (stereo not drawn) [Compound 170, 2-amino-6-((6-(7-(4-(3-cyclopropylureido)-2,3-difluorophenoxy)thieno[3,2-b]pyridin-2-1)pyridin-3-yl)methylamino)hexanoic acid]
< 0.05	O=C(Nc1ccc(Oc2ccnc3cc(-c4cn(CCC(=O)N5CCCCC5)nn4)sc23)c(F)c1)NC1CC1 [Compound 379]
< 0.05	COCCN(Cc1ccc(-c2cc3nccc(Oc4ccc(NC(=O)NC5CC5)c(Cl)c4)c3s2)nc1)C(C)=O [Compound 116, N-((6-(7-(3-chloro-4-(3-cyclopropylureido)phenoxy)thieno[3,2-b]pyridin-2-yl)pyridin-3-yl)methyl)-N-(2-methoxyethyl)acetamide]
< 0.05	CCOC(=O)C1CCCN(C(=O)c2ccc(-c3cc4nccc(Oc5ccc(NC(=O)NC6CC6)cc5F)c4s3)nc2)C1 (stereo not drawn) [Compound 237, ethyl 1-(6-(7-(4-(3-cyclopropylureido)-2-fluorophenoxy)thieno-[3,2-b]pyridin-2-yl)nicotinoyl)piperidine-3-carboxylate]
